Reference: patent US8987258B2 (priority 2008, dated 2015)

Target: T1, SIRT1 (Homo sapiens, UniProt Q96EB6)
T1 sequence (Q96EB6 1-747): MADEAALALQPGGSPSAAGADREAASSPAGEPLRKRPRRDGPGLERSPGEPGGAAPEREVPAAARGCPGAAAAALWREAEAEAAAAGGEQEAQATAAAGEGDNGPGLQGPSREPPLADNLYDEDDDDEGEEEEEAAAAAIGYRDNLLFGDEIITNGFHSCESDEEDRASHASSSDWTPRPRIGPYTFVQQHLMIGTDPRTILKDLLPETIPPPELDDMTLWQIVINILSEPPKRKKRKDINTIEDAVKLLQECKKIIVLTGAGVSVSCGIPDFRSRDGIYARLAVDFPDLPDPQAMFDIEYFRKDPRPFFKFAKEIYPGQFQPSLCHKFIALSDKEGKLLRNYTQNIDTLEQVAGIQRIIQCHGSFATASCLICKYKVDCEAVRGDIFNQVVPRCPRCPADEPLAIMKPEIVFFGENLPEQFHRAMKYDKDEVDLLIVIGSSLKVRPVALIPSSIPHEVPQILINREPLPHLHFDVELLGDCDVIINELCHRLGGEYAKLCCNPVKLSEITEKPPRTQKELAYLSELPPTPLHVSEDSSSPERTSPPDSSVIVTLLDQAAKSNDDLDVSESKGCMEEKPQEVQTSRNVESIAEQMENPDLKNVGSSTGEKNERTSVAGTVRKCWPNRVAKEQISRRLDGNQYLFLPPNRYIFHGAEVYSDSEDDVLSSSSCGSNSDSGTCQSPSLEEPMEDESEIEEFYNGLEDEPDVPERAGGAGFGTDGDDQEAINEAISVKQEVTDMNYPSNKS
Assay: Mass spectrometry based SIRT1 deacetylase activation assay
Assay type: biochemical
Details: for EC1.5 μM: 0.5 μM peptide substrate, 120 μM βNAD+, 10 nM SIRT1, 25 min, 25° C.; for Emax: 25 min, mass spectrometry assay, read-out: % Fold Act. (percent maximum fold activation)
Source text: A mass spectrometry based assay was used to identify modulators of SIRT1 activity. The mass spectrometry based assay utilizes a peptide having 20 amino acid residues as follows: Ac-EE-K(biotin)-GQSTSSHSK(Ac)NleSTEG-K(5TMR)-EE-NH2 (SEQ ID NO: 1) wherein K(Ac) is an acetylated lysine residue and Nle is a norleucine. The peptide is labeled with the fluorophore 5TMR (excitation 540 nm/emission 580 nm) at the C-terminus. The sequence of the peptide substrate is based on p53 with several modifications. In addition, the methionine residue naturally present in the sequence was replaced with the norleucine because the methionine may be susceptible to oxidation during synthesis and purification.
The mass spectrometry assay is conducted as follows: 0.5 μM peptide substrate and 120 μM βNAD^+ is incubated with 10 nM SIRT1 for 25 minutes at 25° C. in a reaction buffer (50 mM Tris-acetate pH 8, 137 mM NaCl, 2.7 mM KCl, 1 mM MgCl2, 5 mM DTT, 0.05% BSA). Test compounds may be added to the reaction as described above. […] After the 25 minute incubation with SIRT1, 10 μL of 10% formic acid is added to stop the reaction. Reactions are sealed and frozen for later mass spec analysis. Determination of the mass of the substrate peptide allows for precise determination of the degree of acetylation (i.e. starting material) as compared to deacetylated peptide (product).
A control for inhibition of sirtuin activity is conducted by adding 1 μL of 500 mM nicotinamide as a negative control at the start of the reaction (e.g., permits determination of maximum sirtuin inhibition). A control for activation of sirtuin activity is conducted using 10 nM of sirtuin protein, with 1 μL of DMSO in place of compound, to determine the amount of deacetylation of the substrate at a given timepoint within the linear range of the assay. This timepoint is the same as that used for test compounds and, within the linear range, the endpoint represents a change in velocity.
For the above assay, SIRT1 protein was expressed and purified as follows. […] The protein was expressed by induction with 1 mM IPTG as an N-terminal His-tag fusion protein at 18° C. overnight and harvested at 30,000×g. Cells were lysed with lysozyme in lysis buffer (50 mM Tris-HCl, 2 mM Tris[2-carboxyethyl]phosphine (TCEP), 10 μM ZnCl2, 200 mM NaCl) and further treated with sonication for 10 min for complete lysis. The protein was purified over a Ni-NTA column (Amersham) and fractions containing pure protein were pooled, concentrated and run over a sizing column (Sephadex S200 26/60 global). The peak containing soluble protein was collected and run on an Ion-exchange column (MonoQ). Gradient elution (200 mM-500 mM NaCl) yielded pure protein. This protein was concentrated and dialyzed against dialysis buffer (20 mM Tris-HCl, 2 mM TCEP) overnight. The protein was aliquoted and frozen at −80° C. until further use.

Compound | EC1.5 μM | Emax [%]
CS(=O)(=O)c1cccc(-c2cc(=O)c3cccc(NC(=O)c4cccnc4)c3o2)c1 [Compound 242] | C (EC1.5>25 μM) | < 200
O=C(Nc1cccc(CN2CCCC2)n1)c1cccc2c(=O)cc(-c3cccc(C(F)(F)F)c3)oc12 [Compound 243, 4-oxo-N-(6-(pyrrolidin-1-ylmethyl)pyridin-2-yl)-2-(3-(trifluoromethyl)phenyl)-4H-chromene-8-carboxamide] | B (EC1.5 1-25 μM) | > 200
O=C(Nc1cccc2c(=O)cc(-c3cccc(C(F)(F)F)c3)oc12)c1cccc(OC[C@@H](O)CO)n1 [Compound 244] | B (EC1.5 1-25 μM) | > 200
O=C(Nc1cccc2c(=O)cc(-c3cccc(C(F)(F)F)c3)oc12)c1ccnc(OC[C@@H](O)CO)c1 [Compound 245] | C (EC1.5>25 μM) | < 200
O=C(Nc1cccc2c(=O)cc(-c3cccc(C(F)(F)F)c3)oc12)c1cccnc1OC[C@@H](O)CO [Compound 246] | B (EC1.5 1-25 μM) | < 200
O=C(Nc1cccc2c(=O)cc(-c3cccc(C(F)(F)F)c3)oc12)c1ccc(OC[C@@H](O)CO)nc1 [Compound 247] | C (EC1.5>25 μM) | < 200
Cc1cnc(NC(=O)c2cccc3c(=O)cc(-c4ccncc4)oc23)s1 [Compound 248, N-(5-methylthiazol-2-yl)-4-oxo-2-(pyridin-4-yl)-4H-chromene-8-carboxamide] | C (EC1.5>25 μM) | < 200
CS(=O)(=O)c1ccc(-c2cc(=O)c3cccc(NC(=O)c4ccccn4)c3o2)cc1 [Compound 249] | C (EC1.5>25 μM) | < 200
Cn1ccnc1C(=O)Nc1cccc2c(=O)cc(-c3ccccc3C(F)(F)F)oc12 [Compound 250] | A (EC1-5<1.0) | > 200
O=C(Nc1cccc2c(=O)cc(-c3ccccc3C(F)(F)F)oc12)c1ccccn1 [Compound 251] | A (EC1-5<1.0) | > 200
O=C(Nc1cccc2c(=O)cc(-c3ccccc3C(F)(F)F)oc12)c1ncccn1 [Compound 252] | A (EC1-5<1.0) | > 200
O=C(Nc1cccc2c(=O)cc(-c3ccccc3C(F)(F)F)oc12)c1ccncn1 [Compound 253] | A (EC1-5<1.0) | > 200
COc1ccccc1-c1cc(=O)c2cccc(NC(=O)c3cnccn3)c2o1 [Compound 254] | C (EC1.5>25 μM) | < 200
COc1ccccc1-c1cc(=O)c2cccc(NC(=O)c3cscn3)c2o1 [Compound 255] | C (EC1.5>25 μM) | < 200
Cn1cnc(C(=O)Nc2cccc3c(=O)cc(-c4ccccc4C(F)(F)F)oc23)c1 [Compound 256] | A (EC1-5<1.0) | > 200
Cn1nccc1C(=O)Nc1cccc2c(=O)cc(-c3ccccc3C(F)(F)F)oc12 [Compound 257] | A (EC1-5<1.0) | > 200
O=C(Nc1cccc2c(=O)cc(-c3ccccc3C(F)(F)F)oc12)c1ccncc1 [Compound 258] | B (EC1.5 1-25 μM) | > 200
Cn1ccc(C(=O)Nc2cccc3c(=O)cc(-c4ccccc4C(F)(F)F)oc23)n1 [Compound 259] | B (EC1.5 1-25 μM) | > 200
O=C(Nc1cccc2c(=O)cc(-c3ccccc3C(F)(F)F)oc12)c1cncnc1 [Compound 260] | C (EC1.5>25 μM) | < 200
O=C(Nc1cccc2c(=O)cc(-c3ccccc3C(F)(F)F)oc12)c1cnccn1 [Compound 261] | A (EC1-5<1.0) | > 200
O=C(Nc1cccc2c(=O)cc(-c3ccccc3C(F)(F)F)oc12)c1cccnc1 [Compound 262] | B (EC1.5 1-25 μM) | < 200

Compound | EC1.5 μM | Emax [%]
O=C(Nc1cccc2c(=O)cc(-c3ccccc3OC(F)F)oc12)c1cnccn1 [Compound 263] | C (EC1.5>25 μM) | < 200
O=C(Nc1cccc2c(=O)cc(-c3ccccc3OC(F)F)oc12)c1cscn1 [Compound 264] | C (EC1.5>25 μM) | < 200
CS(=O)(=O)c1ccccc1-c1cc(=O)c2cccc(NC(=O)c3cnccn3)c2o1 [Compound 265] | C (EC1.5>25 μM) | < 200
CS(=O)(=O)c1ccccc1-c1cc(=O)c2cccc(NC(=O)c3cscn3)c2o1 [Compound 266] | B (EC1.5 1-25 μM) | < 200
O=C(Nc1cccc2c(=O)cc(-c3ccccc3C(F)(F)F)oc12)c1cncs1 [Compound 267] | B (EC1.5 1-25 μM) | > 200
Cc1ncoc1C(=O)Nc1cccc2c(=O)cc(-c3ccccc3C(F)(F)F)oc12 [Compound 268] | A (EC1-5<1.0) | > 200
Cn1cc(C(=O)Nc2cccc3c(=O)cc(-c4ccccc4C(F)(F)F)oc23)cn1 [Compound 269] | B (EC1.5 1-25 μM) | > 200
Cc1cnc(NC(=O)c2cccc3c(=O)cc(-c4ccccc4Cl)oc23)s1 [Compound 270] | C (EC1.5>25 μM) | < 200
Cc1cnc(NC(=O)c2cccc3c(=O)cc(-c4ccccc4F)oc23)s1 [Compound 271] | C (EC1.5>25 μM) | < 200
O=C(Nc1cccc2c(=O)cc(-c3ccccc3C(F)(F)F)oc12)c1cocn1 [Compound 272] | B (EC1.5 1-25 μM) | > 200
Cc1ccccc1-c1cc(=O)c2cccc(NC(=O)c3cnccn3)c2o1 [Compound 273, N-(4-oxo-2-o-tolyl-4H-chromen-8-yl)pyrazine-2-carboxamide] | A (EC1-5<1.0) | > 200
Cc1ccccc1-c1cc(=O)c2cccc(NC(=O)c3cscn3)c2o1 [Compound 274] | C (EC1.5>25 μM) | < 200
Cc1cnc(NC(=O)c2cccc3c(=O)cc(-c4ccccc4OC(F)(F)F)oc23)s1 [Compound 275] | C (EC1.5>25 μM) | < 200
Cc1cnc(NC(=O)c2cccc3c(=O)cc(-c4ccccc4C(F)(F)F)oc23)s1 [Compound 276] | C (EC1.5>25 μM) | < 200
Cn1cncc1C(=O)Nc1cccc2c(=O)cc(-c3ccccc3C(F)(F)F)oc12 [Compound 277] | B (EC1.5 1-25 μM) | > 200
O=C(Nc1cccc2c(=O)cc(-c3ccccc3F)oc12)c1cnccn1 [Compound 278] | C (EC1.5>25 μM) | < 200
O=C(Nc1cccc2c(=O)cc(-c3ccccc3F)oc12)c1cscn1 [Compound 279] | C (EC1.5>25 μM) | < 200
O=C(Nc1cccc2c(=O)cc(-c3ccccc3Cl)oc12)c1cnccn1 [Compound 280] | A (EC1-5<1.0) | > 200
O=C(Nc1cccc2c(=O)cc(-c3ccccc3Cl)oc12)c1cscn1 [Compound 281] | A (EC1-5<1.0) | > 200
O=C(Nc1cccc2c(=O)cc(-c3ccccc3C(F)F)oc12)c1cnccn1 [Compound 282] | A (EC1-5<1.0) | > 200
